Molecules are shown by their SMILES.

Data set [1] deals with vasculature. The following applies: at maximum tolerated dose; Lancet, 1994, 344, 1267-1271; cited from earlier work.
Data set [2] deals with CaNT tumour vasculature. Kind of data set: Activity against tumour vasculature measured by fluorescent dye (Hoechst 33342), tumour functional vascular volume. The conditions noted are these: fluorescent dye method, CaNT tumour-bearing mice, dye 24 hours after drug treatment; for % Decrease in vascular volume: intraperitoneal, dose not given. In kind it is in vivo. Here is the method: (b) Activity Against Tumour Vasculature Measured by Fluorescent Dye
Tumour functional vascular volume of CaNT tumour-bearing mice was measured using the fluorescent dye Hoechst 33342 according to the method of Smith et al (Brit. Jnl. Cancer 1988, 57, 247–253). Five animals were used in control and treated group. The fluorescent dye was dissolved in saline at 6.25 mg/ml and injected intravenously at 10 mg/kg 24 hours after intraperitoneal drug treatment. One minute later, animals were killed and tumours excised and frozen; 10 μm sections were cut at 3 different levels and observed under UV illumination using an Olympus microscope equipped with epifluorescence. Blood vessels were identified by their fluorescent outlines and vascular volume was quantified using a point scoring system based on that described by Chalkley, (Jnl. Natl. Cancer Inst., 1943, 4, 47–53). All estimates were based on counting a minimum of 100 fields from sections cut at the 3 different levels.

Data set [3] has as its system tubulin. Briefly: Tubulin polymerisation assay. It counts as biochemical. The following applies: method of O. Boye et al Med. Chem. Res., 1991, 1, 142-150. The source says: The ability of the compounds to bind to preparations of mammalian tubulin can be evaluated by a number of methods available in the literature, for example by following temperature initiated tubulin polymerisation by turbidity in the absence and presence of the compound (for example O. Boye et al Med. Chem. Res., 1991, 1, 142–150).

`CC(=O)O[C@@]12CO[C@@H]1C[C@H](O)[C@@]1(C)C(=O)[C@H](O)C3=C(C)[C@@H](OC(=O)[C@H](O)[C@@H](NC(=O)OC(C)(C)C)c4ccccc4)C[C@@](O)([C@@H](OC(=O)c4ccccc4)[C@H]21)C3(C)C` [docetaxel]: in data set [1], the “vascular-damaging activity when administered at the MTD” value was “no vascular-damaging activity”. For the compound `COc1cc2c(c(OC)c1OC)-c1ccc(OC(=O)N3CCC(N4CCCCC4)CC3)cc1C(NC(C)=O)CC2` (centres unmarked) [Example 3, N-[3-(4-(1-piperidinyl)piperidinylcarbonyloxy)-9,10,11-trimethoxy-6,7-dihydro-5H-dibenzo[a,c]cyclohepten-5-yl]acetamide], the “% Decrease in vascular volume” value in data set [2] stood at 45%. The same measure, in the same setting: the figure for `COc1cc2c(c(OC)c1OC)-c1ccc(NC(=O)[C@H](C)N)cc1C(NC(C)=O)CC2` (some centres unmarked) [Example 2, N-[3-(alanylamino)-9,10,11-trimethoxy-6,7-dihydro-5H-dibenzo[a,c]cyclohepten-5-yl]acetamide] is 95%. Turning to `COc1cc2c(c(OC)c1OC)-c1ccc(N)cc1C(NC(C)=O)CC2` (centres unmarked) [N-[3-amino-9,10,11-trimethoxy-6,7-dihydro-5H-dibenzo[a,c]cyclohepten-5-yl]acetamide], the “decrease in perfused vascular volume relative to control” value in data set [2] (50 mg/kg intraperitoneally) was 88%. Moreover, 58 µM corresponded to half-maximal inhibition in data set [3] (IC50).

Source of the values: patent publication US7135502B1, “Colchinol derivatives as vascular damaging agents” (priority 1999, dated 2006).
